# Columns and labels:
# Assay in all cases: Test D pre-/postemergence plant response
# Assay type in all cases: in vivo
# [1] = system: pigweed (Amaranthus retroflexus); conditions: Amaranthus retroflexus, pre-emergence, Preemergence, scale 0 to 100 (0 no effect, 100 complete control), read-out: Plant response rating, Pigweed
# Procedure, shortened: (§1)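 Visual rating, 0–100 scale (0 = no effect, 100 = complete control), versus untreated controls 13 to 15 days after treatment in greenhouse. Preemergence: seeds in loam/sand soil. Postemergence: 2 to 18 cm plants, 1- to 4-leaf stage, peat-based medium. Compounds formulated in non-phytotoxic solvent plus surfactant.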
# corn (Zea mays) = conditions: Zea mays, pre-emergence, Preemergence, scale 0 to 100 (0 no effect, 100 complete control)
# Procedure, shortened: as §1
# [2] = system: Italian ryegrass (Lolium multiflorum); conditions: Lolium multiflorum, pre-emergence, Preemergence, scale 0 to 100 (0 no effect, 100 complete control), read-out: Plant response rating, Ryegrass, Italian
# Procedure, shortened: as §1
# [3] = system: giant foxtail (Setaria faberii); conditions: Setaria faberi, pre-emergence, Preemergence, scale 0 to 100 (0 no effect, 100 complete control), read-out: Plant response rating, Foxtail, Giant
# Procedure, shortened: as §1
# [4] = system: yellow nutsedge (Cyperus esculentus); conditions: Cyperus, pre-emergence, Preemergence, scale 0 to 100 (0 no effect, 100 complete control), read-out: Plant response rating, Nutsedge, Yellow
# Procedure, shortened: as §1
# [5] = system: galium (catchweed bedstraw, Galium aparine); conditions: Galium, pre-emergence, Preemergence, scale 0 to 100 (0 no effect, 100 complete control), read-out: Plant response rating, Galium
# Procedure, shortened: as §1
# [6] = system: barnyardgrass (Echinochloa crus-galli); conditions: Echinochloa crus-galli, pre-emergence, Preemergence
# Procedure, shortened: as §1
# [7] = system: large (Lg) crabgrass (Digitaria sanguinalis); conditions: Digitaria sanguinalis, pre-emergence, Preemergence, scale 0 to 100 (0 no effect, 100 complete control), read-out: Plant response rating, Crabgrass, Large
# Procedure, shortened: as §1
# [8] = system: blackgrass (Alopecurus myosuroides); conditions: Alopecurus myosuroides, pre-emergence, Preemergence, scale 0 to 100 (0 no effect, 100 complete control), read-out: Plant response rating, Blackgrass
# Procedure, shortened: as §1
# [9] = system: oilseed rape (Brassica napus); conditions: Brassica napus, pre-emergence, Preemergence, scale 0 to 100 (0 no effect, 100 complete control), read-out: Plant response rating, Oilseed Rape
# Procedure, shortened: as §1
# [10] = system: ragweed (common ragweed, Ambrosia elatior); conditions: Ambrosia artemisiifolia, pre-emergence, Preemergence, scale 0 to 100 (0 no effect, 100 complete control), read-out: Plant response rating, Ragweed
# Procedure, shortened: as §1
structure (smiles),measurement,setting,value
"FCc1cc(-c2ccccc2Oc2ncc(Cl)cn2)no1 [Compound 32, 5-chloro-2-[2-[5-(fluoromethyl)-3-isoxazolyl]phenoxy]pyrimidine]",pest or weed control at 8 g/ha,[1]; 8 g ai/ha,100%
same,pest or weed control at 16 g/ha,[1]; 16 g ai/ha,100%
same,pest or weed control at 31 g/ha,[1]; 31 g ai/ha,98%
same,pest or weed control at 62 g/ha,[1]; 62 g ai/ha,100%
same,"Corn plant response rating (crop injury, 0 = no effect, 100 = complete kill) at 8 g/ha",corn (Zea mays); 8 g ai/ha,0%
same,"Corn plant response rating (crop injury, 0 = no effect, 100 = complete kill) at 16 g/ha",corn (Zea mays); 16 g ai/ha,0%
same,"Corn plant response rating (crop injury, 0 = no effect, 100 = complete kill) at 31 g/ha",corn (Zea mays); 31 g ai/ha,0%
same,"Corn plant response rating (crop injury, 0 = no effect, 100 = complete kill) at 62 g/ha",corn (Zea mays); 62 g ai/ha,0%
same,pest or weed control at 8 g/ha,[2]; 8 g ai/ha,0%
same,pest or weed control at 16 g/ha,[2]; 16 g ai/ha,0%
same,pest or weed control at 31 g/ha,[2]; 31 g ai/ha,0%
same,pest or weed control at 62 g/ha,[2]; 62 g ai/ha,10%
same,pest or weed control at 8 g/ha,[3]; 8 g ai/ha,0%
same,pest or weed control at 16 g/ha,[3]; 16 g ai/ha,35%
same,pest or weed control at 31 g/ha,[3]; 31 g ai/ha,85%
same,pest or weed control at 62 g/ha,[3]; 62 g ai/ha,95%
same,pest or weed control at 8 g/ha,[4]; 8 g ai/ha,60%
same,pest or weed control at 16 g/ha,[4]; 16 g ai/ha,65%
same,pest or weed control at 31 g/ha,[4]; 31 g ai/ha,0%
same,pest or weed control at 62 g/ha,[4]; 62 g ai/ha,25%
same,pest or weed control at 8 g/ha,[5]; 8 g ai/ha,0%
same,pest or weed control at 16 g/ha,[5]; 16 g ai/ha,25%
same,pest or weed control at 31 g/ha,[5]; 31 g ai/ha,65%
same,pest or weed control at 62 g/ha,[5]; 62 g ai/ha,75%
same,pest or weed control at 62 g/ha,"[6]; 62 g ai/ha, read-out: Plant response rating (scale 0 to 100), Barnyardgrass",98%
same,pest or weed control at 8 g/ha,"[6]; 8 g ai/ha, scale 0 to 100 (0 no effect, 100 complete control), read-out: Plant response rating, Barnyardgrass",0%
same,pest or weed control at 16 g/ha,"[6]; 16 g ai/ha, scale 0 to 100 (0 no effect, 100 complete control), read-out: Plant response rating, Barnyardgrass",5%
same,pest or weed control at 31 g/ha,"[6]; 31 g ai/ha, scale 0 to 100 (0 no effect, 100 complete control), read-out: Plant response rating, Barnyardgrass",55%
same,pest or weed control at 8 g/ha,[7]; 8 g ai/ha,100%
same,pest or weed control at 16 g/ha,[7]; 16 g ai/ha,90%
same,pest or weed control at 31 g/ha,[7]; 31 g ai/ha,98%
same,pest or weed control at 62 g/ha,[7]; 62 g ai/ha,100%
same,pest or weed control at 8 g/ha,[8]; 8 g ai/ha,0%
same,pest or weed control at 16 g/ha,[8]; 16 g ai/ha,0%
same,pest or weed control at 31 g/ha,[8]; 31 g ai/ha,30%
same,pest or weed control at 62 g/ha,[8]; 62 g ai/ha,35%
same,plant injury at 8 g/ha,[9]; 8 g ai/ha,50%
same,plant injury at 16 g/ha,[9]; 16 g ai/ha,80%
same,plant injury at 31 g/ha,[9]; 31 g ai/ha,100%
same,plant injury at 62 g/ha,[9]; 62 g ai/ha,100%
same,pest or weed control at 8 g/ha,[10]; 8 g ai/ha,75%
same,pest or weed control at 16 g/ha,[10]; 16 g ai/ha,60%
same,pest or weed control at 31 g/ha,[10]; 31 g ai/ha,75%
same,pest or weed control at 62 g/ha,[10]; 62 g ai/ha,70%
